Data on four compounds can be found in article PMC5585349, “Biosynthesis of the nosiheptide indole side ring centers on a cryptic carrier protein NosJ” (Nature Communications, 2017).

For one assay, the target named is NosI (Streptomyces actuosus, UniProt C6FX48). The assay is described as follows: LC-HR-MS detection of MIA-AMP ([…]). In kind it is biochemical.
For a further assay, the target named is T1, NosK (Streptomyces actuosus, UniProt C6FX50).
T1 construct: expressed in E. coli, purified
In words: thioester hydrolysis, HPLC UV […] nm. In kind it is biochemical. Conditions: CoA thioester hydrolysed.

NosI, sequence (C6FX48 entry or part of it): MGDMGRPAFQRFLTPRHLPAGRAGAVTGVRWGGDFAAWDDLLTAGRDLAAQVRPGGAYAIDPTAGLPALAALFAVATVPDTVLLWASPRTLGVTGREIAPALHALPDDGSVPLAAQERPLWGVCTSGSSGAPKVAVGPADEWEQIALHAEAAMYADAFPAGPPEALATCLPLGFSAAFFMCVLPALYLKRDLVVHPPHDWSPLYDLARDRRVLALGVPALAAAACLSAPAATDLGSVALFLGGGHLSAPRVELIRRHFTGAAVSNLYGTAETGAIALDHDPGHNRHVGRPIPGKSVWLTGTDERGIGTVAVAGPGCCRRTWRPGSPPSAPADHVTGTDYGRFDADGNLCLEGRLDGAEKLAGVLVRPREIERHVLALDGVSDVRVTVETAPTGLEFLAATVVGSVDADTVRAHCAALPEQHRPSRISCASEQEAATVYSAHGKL
T1 sequence (C6FX50 entry or part of it): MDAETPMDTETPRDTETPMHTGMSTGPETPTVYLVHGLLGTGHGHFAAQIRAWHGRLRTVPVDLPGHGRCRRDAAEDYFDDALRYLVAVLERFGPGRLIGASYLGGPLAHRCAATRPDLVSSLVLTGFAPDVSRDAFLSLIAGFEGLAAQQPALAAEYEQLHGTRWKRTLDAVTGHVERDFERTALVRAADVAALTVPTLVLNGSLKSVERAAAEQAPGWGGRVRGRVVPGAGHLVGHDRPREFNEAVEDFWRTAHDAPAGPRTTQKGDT

On to `Nc1ncnc2c1ncn2[C@@H]1O[C@H](COP(=O)(O)OP(=O)(O)OP(=O)(O)O)[C@@H](O)[C@H]1O` [ATP], for which the “LC-HR-MS detection of MIA-AMP (4)” value on NosI (MIA co-substrate) is “LC-HR-MS analysis of the reaction mixture containing NosI, MIA and ATP clearly showed the production”.
As for `Cc1c(C(=O)O)[nH]c2ccccc12` [compound 3, 3-methyl-2-indolic acid], the “LC-HR-MS detection of MIA-AMP (4)” value on NosI (ATP co-substrate, MIA adenylated, then transferred to pantetheine or holo-NosJ) was “LC-HR-MS analysis of the reaction mixture containing NosI, MIA and ATP clearly showed the production”.
As to `Cc1c(C(=O)SCCNC(=O)CCNC(=O)[C@H](O)C(C)(C)COP(=O)(O)OP(=O)(O)OC[C@H]2O[C@@H](n3cnc4c(N)ncnc43)[C@H](O)[C@@H]2OP(=O)(O)O)[nH]c2ccccc12` [MIA-CoA], on NosK, the “thioester hydrolysis, HPLC UV 300 nm” value is “NosK also hydrolyzes the CoA-bound MIA and DMIA thioesters with comparative efficiencies”.
The same measure, in the same setting: for `Cc1cccc2[nH]c(C(=O)SCCNC(=O)CCNC(=O)[C@H](O)C(C)(C)COP(=O)(O)OP(=O)(O)OC[C@H]3O[C@@H](n4cnc5c(N)ncnc54)[C@H](O)[C@@H]3OP(=O)(O)O)c(C)c12` [DMIA-CoA] the value was “NosK also hydrolyzes the CoA-bound MIA and DMIA thioesters with comparative efficiencies”.
